Data taken from ChEMBL document CHEMBL4651402, “Screening of ~5500 FDA-approved drugs and clinical candidates for anti-SARS-CoV-2 activity” (2021).

System: SARS-CoV-2
Assay: microbe, parasite or virus in culture
Conditions: Severe acute respiratory syndrome coronavirus 2, Vero C1008, 48 h

SMILES | IC50 [µM] | IC50 (read-out: pIC50 (converted)) [µM]
C[C@@H]1CC[C@@]2(NC1)O[C@H]1C[C@H]3[C@@H]4CC=C5C[C@@H](O)CC[C@]5(C)[C@H]4CC[C@]3(C)[C@H]1[C@@H]2C | > 20 | > 20
NC(N)=O [UREA] | > 20 | > 20
CO/N=C(\C(=O)N[C@@H]1C(=O)N2C(C(=O)O)=C(COC(C)=O)CS[C@H]12)c1csc(N)n1 [CEFOTAXIME] | > 20 | > 20
C=CC(=O)N1CCC(CNc2ncnc(N)c2-c2ccc(Oc3ccccc3)cc2)CC1 [EVOBRUTINIB] | > 20 | > 20
OC[C@@H](O)[C@H]1O[C@@H]2O[C@H](C(Cl)(Cl)Cl)O[C@@H]2[C@H]1O [CHLORALOSE] | > 20 | > 20
COc1ccc(C(=O)CC(=O)c2ccc(C(C)(C)C)cc2)cc1 [AVOBENZONE] | > 20 | > 20
C[C@@H]1C[C@H]2[C@@H]3CCC4=CC(=O)C=C[C@]4(C)[C@@]3(F)[C@@H](O)C[C@]2(C)[C@@]1(O)C(=O)CO [DEXAMETHASONE] | > 20 | > 20
CC(O)(C(N)=O)c1ccccc1 (stereo not drawn) [ATROLACTAMIDE] | > 20 | > 20
CC(C)(C)CC(C)(C)c1ccc(OCOCCOCCO)c(Cc2cc(C(C)(C)CC(C)(C)C)cc(Cc3cc(C(C)(C)CC(C)(C)C)ccc3OCOCCOCCO)c2OCOCCOCCO)c1 | > 20 | > 20
NC(=O)C(CCN1CCN2CCCC2C1)(c1ccccc1)c1ccccc1 (stereo not drawn) [PIROLAZAMIDE] | > 20 | > 20
OCc1ccccn1 [PICONOL] | > 20 | > 20
CO[C@@]1(NC(=O)C2SC(=C(C(N)=O)C(=O)O)S2)C(=O)N2C(C(=O)O)=C(CSc3nnnn3C)CS[C@@H]21 (stereo partly drawn) [CEFOTETAN] | > 20 | > 20
CN(C)c1nc(N(C)C)nc(N(C)C)n1 [ALTRETAMINE] | > 20 | > 20
O=[N+]([O-])c1cncn1CCN1CCOCC1 [NIMORAZOLE] | > 20 | > 20
O=C(O)COC(=O)Cc1ccccc1Nc1c(Cl)cccc1Cl [ACECLOFENAC] | > 20 | > 20
Cc1cc(C)c(Nc2ccnc(Nc3ccc(C#N)cc3)n2)c(C)c1 [DAPIVIRINE] | > 20 | > 20
CCO[C@@H]1O[C@@H]2O[C@@]3(C)CC[C@@H]4[C@H](C)CC[C@@H]([C@H]1C)[C@@]24OO3 | > 20 | > 20
NC(=O)C1c2ccccc2C=Cc2ccccc21 [CITENAMIDE] | > 20 | > 20
CN(C)CCC[C@@]1(c2ccc(F)cc2)OCc2cc(C#N)ccc21 [ESCITALOPRAM] | > 20 | > 20
CC(C)(C)C(=O)OCC(=O)[C@H]1CC[C@H]2[C@@H]3CCC4=CC(=O)CC[C@]4(C)[C@H]3CC[C@]12C [DESOXYCORTICOSTERONE PIVALATE] | > 20 | > 20

SMILES | IC50 [µM] | IC50 (read-out: pIC50 (converted)) [µM]
CCCc1c2oc(C(=O)O)cc(=O)c2cc2c(=O)cc(C(=O)O)oc12 [PROBICROMIL] | > 20 | > 20
CN1C(=O)CC(=O)N(c2ccccc2)c2cc(C(F)(F)F)ccc21 [TRIFLUBAZAM] | > 20 | > 20
Fc1ccc(-c2ccc3c(c2)[nH]c2ccncc23)cn1 [FLORTAUCIPIR] | > 20 | > 20
CC(C(=O)O)c1ccc2c(c1)Cc1cccnc1O2 (stereo not drawn) [PRANOPROFEN] | > 20 | > 20
Cc1cccc(C)c1NC(=O)CN(CC(=O)O)CC(=O)O [LIDOFENIN] | > 20 | > 20
CC[C@@H](C)C(=O)O[C@H]1[C@H](O)[C@H]2[C@@H](CN3C[C@@H](C)CC[C@H]3[C@@]2(C)O)[C@@H]2C[C@]34O[C@@]5(O)[C@@H](OC(=O)[C@](C)(O)CC)CC[C@@]3(C)[C@@H]5[C@@H](OC(C)=O)[C@@H](OC(C)=O)[C@H]4[C@@]21O | > 20 | > 20
CCN(CC)CC#CCOC(=O)C(O)(c1ccccc1)C1CCCCC1 (stereo not drawn) [OXYBUTYNIN] | > 20 | > 20
COC1=C[C@@H]2[C@@H]3Cc4ccc(OC)c(O)c4[C@]2(CCN3C)CC1=O [SINOMENINE] | > 20 | > 20
CC12CCC3C(CC[C@H]4C[C@H](Cl)CCC34C)C1CCC2=O (stereo partly drawn) | > 20 | > 20
CCCCn1ccc(N2CCC(c3ccccc3)CC2)c(Cl)c1=O [JNJ-40411813] | > 20 | > 20
O=c1[nH]c(=O)n([C@@H]2O[C@H](CO)[C@@H](O)[C@@H]2F)cc1I [FIALURIDINE] | > 20 | > 20
NS(=O)(=O)c1cc(C(=O)NN2CC3C4CCC(C4)C3C2)ccc1Cl (stereo not drawn) | > 20 | > 20
O=C(N[C@H]1CN2CCC1CC2)c1c[nH]c2ccsc2c1=O [PUMOSETRAG] | > 20 | > 20
O=C(O)c1nn(Cc2ccc(Cl)cc2Cl)c2ccccc12 [LONIDAMINE] | > 20 | > 20
Cc1ccc(S(=O)(=O)Nc2nc3ccccc3nc2Nc2ccc3nsnc3c2)cc1 | > 20 | > 20
C[N+]1(C)CCOC(O)(c2ccc(-c3ccc(C4(O)C[N+](C)(C)CCO4)cc3)cc2)C1 (stereo not drawn) [HEMICHOLINIUM-3] | > 20 | > 20
COc1c(O[C@@H]2O[C@H](CO)[C@@H](O)[C@H](O)[C@H]2O)cc2c(c1OC)-c1ccc(SC)c(=O)cc1[C@@H](NC(C)=O)CC2 [THIOCOLCHICOSIDE] | > 20 | > 20
CCN1C(=O)OC(C)(C)C1=O [ETHADIONE] | > 20 | > 20
CN[C@@H](C)Cc1ccccc1 [METHAMPHETAMINE] | > 20 | > 20
Cc1cccc(Cl)c1NC(=O)CCN1CCC[C@H]2CCC[C@@H]21 | > 20 | > 20

SMILES | IC50 [µM] | IC50 (read-out: pIC50 (converted)) [µM]
O=c1[nH]c2cc(Cl)ccc2n1C1CCN(CCCC(c2ccc(F)cc2)c2ccc(F)cc2)CC1 [CLOPIMOZIDE] | > 20 | > 20
Cc1cc2c(cc1CC(=O)c1sccc1S(=O)(=O)Nc1onc(C)c1Cl)OCO2 [SITAXENTAN] | > 20 | > 20
CC(C)CCCC(C)C1CCC2C3CC(O)[C@@]4(O)CC(O)CCC4(C)C3CCC12C (stereo partly drawn) | > 20 | > 20
CNC(=O)c1ccc(N2C(=S)N(c3ccc(C#N)c(C(F)(F)F)c3)C(=O)C2(C)C)cc1F [ENZALUTAMIDE] | > 20 | > 20
C[C@@H]1C[C@H]2[C@@H]3C[C@H](F)C4=CC(=O)C=C[C@]4(C)[C@@]3(Cl)[C@@H](O)C[C@]2(C)[C@H]1C(=O)COC(=O)C(C)(C)C [CLOCORTOLONE PIVALATE] | > 20 | > 20
NCCS [CYSTEAMINE] | > 10 | > 10
CN(CC(=O)N1CCOCC1)Cc1c(Cl)cccc1NC(=O)c1ccccc1 [FOMINOBEN] | > 20 | > 20
COc1c2ccoc2cc2oc(=O)ccc12 [BERGAPTEN] | > 20 | > 20
COc1ccccc1OCC1CNC(=O)O1 (stereo not drawn) [MEPHENOXALONE] | > 20 | > 20
CCCCCCOc1ccccc1C(N)=O [EXALAMIDE] | > 20 | > 20
COc1c(N2C[C@@H]3CCCN[C@@H]3C2)c(F)cc2c(=O)c(C(=O)O)cn(C3CC3)c12 [MOXIFLOXACIN] | > 20 | > 20
CC(C)[C@H](N)C(=O)OCCOCn1cnc2c(=O)nc(N)[nH]c21 [VALACYCLOVIR] | > 20 | > 20
CCCCC[C@H](O)CC[C@@H]1[C@H]2Cc3cccc(OCC(=O)O)c3C[C@H]2C[C@H]1O [TREPROSTINIL] | > 20 | > 20
Cc1cc(C(C)(C)CC(C)(C)C)ccc1OCCOCC[N+](C)(C)Cc1ccccc1 [METHYLBENZETHONIUM] | > 20 | > 20
CO[C@H]1[C@H](O)[C@@H](O)[C@H](O)[C@H](O)[C@H]1O [QUEBRACHITOL] | > 20 | > 20
O=C(NNCS(=O)(=O)O)c1ccncc1 [METHANIAZIDE] | > 20 | > 20
CC(C)NCC(O)COc1ccccc1-n1cccc1 (stereo not drawn) [ISAMOLTAN] | > 20 | > 20
CS(=O)(=O)c1ccc2c(c1)N(CCCN1CCC(C(N)=O)CC1)c1ccccc1S2 [METOPIMAZINE] | > 20 | > 20
C[C@@H](CN1CCOCC1)C(C(=O)N1CCCC1)(c1ccccc1)c1ccccc1 [LEVOMORAMIDE] | > 20 | > 20
